Experimental data published in US20040006070A1, “Intraspinal continuous infusion of midazolam hydrochloride for the treatment of pain” (priority 2002, published 2004).
Where a name gives a salt, the structure may show the parent alone.

Assay: Bloodwork: complete blood count, electrolytes, extended blood chemistry
Format: in vivo, sheep
Details: for Total Bili: ref 0.14-0.32; for K+: ref 3.9-5.4; for Phos: ref 5-7.3; for Total Prot: ref 6-7.9
Protocol: Indirect blood pressure, pulse recording, pain testing (mechanical stimulus device, cold and warm water baths see description in procedure) and weight were taken on days 1, 3, 7, 15, 22, 29, 36, and 43. Venous blood samples (15 ml drawn from the jugular vein with Vacutainer brand blood collection tubes) for complete blood count, electrolytes, and extended blood chemistry were drawn on days 1, 15, and 43 (mild procedure only light hand restraint necessary).

[1] = sheep Chicken Hawk #87, 5 mg/day, Baseline
[2] = sheep Chicken Hawk #87, 5 mg/day, Day 1

## Cc1ncc2n1-c1ccc(Cl)cc1C(c1ccccc1F)=NC2 [Midazolam, midazolam hydrochloride]
Sheep #498, 10 mg/day, Day 43
  MCH: 9.3 pg
  MCHC: 30.3 g/dL
  MCV: 30.9 fL
  Na+: 148 mEq/l
  RBC: 1.003e+07 µL⁻¹
  WBC: 9700 µL⁻¹
  Total Bili: 0.1 mg/dL
  K+: 4.0 mEq/l
  Phos: 5.8 Mg/dl
  Total Prot: 6.1 g/dL
Sheep #498, 10 mg/day, Day 43, ref 1-2.7
  Creatinine: 1.5 mg/dL
Sheep #498, 10 mg/day, Day 43, ref 2.4-3
  Albumin: 3.6 g/dL
Sheep #498, 10 mg/day, Day 43, result in words
  Platlet Count: Ade-
Sheep #518, 5 mg/day, Day 1
  ALT: 12.0 U/L
  AST: 112 U/L
  Alk Phos: 157 U/L
  BUN: 15 mg/dL
  CPK: 148 U/L
  Cholesterol: 96 mg/dL
  Differential Count: Eosin: 1%
  Differential Count: Lymph: 29%
  Differential Count: Seg: 70%
  Gamma GT: 79 U/L
  Glucose: 8.8 mg/dL
  Hct: 35.0%
  Hgb: 12.2 g/dL
  MCH: 9.6 pg
  MCHC: 31.4 G/dl
  MCV: 30.6 fL
  Na+: 154 mEq/l
  Platlet Count: 642000 µL⁻¹
  RBC: 1.144e+07 µL⁻¹
  WBC: 8400 µL⁻¹
  Total Bili: 0.2 mg/dL
  K+: 4.9 mEq/l
  Phos: 7.2 mg/dL
  Total Prot: 7.0 G/dl
Sheep #518, 5 mg/day, Day 1, ref 1-2.7
  Creatinine: 1.1 mg/dL
Sheep #518, 5 mg/day, Day 1, ref 2.4-3
  Albumin: 3.6 G/dl
Sheep #518, 5 mg/day, Day 3
  ALT: 10.0 U/L
  AST: 99 U/L
  Alk Phos: 99 U/L
  BUN: 5 mg/dL
  CPK: 834 U/L
  Cholesterol: 87 mg/dL
  Differential Count: Atyp lym: 1%
  Differential Count: Eosin: 1%
  Differential Count: Lymph: 47%
  Differential Count: Seg: 51%
  Gamma GT: 79 U/L
  Glucose: 122 mg/dL
  Hct: 33.0%
  Hgb: 11.3 g/dL
  MCH: 9.3 pg
  MCHC: 30.1 G/dl
  MCV: 30.7 fL
  Na+: 151 mEq/l
  Platlet Count: 546000 µL⁻¹
  RBC: 1.075e+07 µL⁻¹
  WBC: 6400 µL⁻¹
  Total Bili: 0.1 mg/dL
  K+: 4.4 mEq/l
  Phos: 5.7 mg/dL
  Total Prot: 6.6 G/dl
Sheep #518, 5 mg/day, Day 3, ref 1-2.7
  Creatinine: 1.4 mg/dL
Sheep #518, 5 mg/day, Day 3, ref 2.4-3
  Albumin: 3.8 G/dl
Sheep #518, 5 mg/day, Day 15
  ALT: 13.0 U/L
  AST: 74 U/L
  Alk Phos: 100 U/L
  BUN: 13 mg/dL
  CPK: 172 U/L
  Cholesterol: 83 mg/dL
  Differential Count: Eosin: 5%
  Differential Count: Lymph: 62%
  Differential Count: Seg: 33%
  Gamma GT: 90 U/L
  Glucose: 74 mg/dL
  Hct: 33.0%
  Hgb: 11.6 g/dL
  MCH: 9.6 pg
  MCHC: 31.3 G/dl
  MCV: 30.7 fL
  Na+: 151 mEq/l
  Platlet Count: 533000 µL⁻¹
  RBC: 1.208e+07 µL⁻¹
  WBC: 5300 µL⁻¹
  Total Bili: 0.1 mg/dL
  K+: 4.6 mEq/l
  Phos: 5.1 mg/dL
  Total Prot: 6.7 G/dl
Sheep #518, 5 mg/day, Day 15, ref 1-2.7
  Creatinine: 1.6 mg/dL
Sheep #518, 5 mg/day, Day 15, ref 2.4-3
  Albumin: 4.1 G/dl
Sheep #518, 5 mg/day, Day 43
  ALT: 12.0 U/L
  AST: 76 U/L
  Alk Phos: 89 U/L
  BUN: 7 mg/dL
  CPK: 787 U/L
  Cholesterol: 69 mg/dL
  Differential Count: Atyp lym: 1%
  Differential Count: Eosin: 4%
  Differential Count: Lymph: 48%
  Differential Count: Seg: 47%
  Gamma GT: 68 U/L
  Glucose: 89 mg/dL
  Hct: 44.6%
  Hgb: 13.7 g/dL
  MCH: 9.6 pg
  MCHC: 30.7 G/dl
  MCV: 31.1 fL
  Na+: 152 mEq/l
  Platlet Count: 448000 µL⁻¹
  RBC: 1.254e+07 µL⁻¹
  WBC: 4800 µL⁻¹
  Total Bili: 0.1 mg/dL
  K+: 4.6 mEq/l
  Phos: 6.4 mg/dL
  Total Prot: 6.2 G/dl
Sheep #518, 5 mg/day, Day 43, ref 1-2.7
  Creatinine: 1.7 mg/dL
Sheep #518, 5 mg/day, Day 43, ref 2.4-3
  Albumin: 3.5 G/dl
[1]
  Differential Count: Atyp lym: 0%
  Differential Count: Baso: 0%
  Differential Count: Eosin: 2%
  Differential Count: Lymph: 41%
  Differential Count: Mono: 4%
  Differential Count: Seg: 53%
  Hct: 31.5%
  Hgb: 10.8 g/dL
  MCH: 11.0 pg
  MCHC: 34.2 g/dL
  MCV: 32.3 fL
  Platlet Count: 848000 µL⁻¹
  RBC: 9.77e+06 µL⁻¹
  WBC: 6180 µL⁻¹
[2]
  ALT: 4 U/L
  AST: 63 U/L
  Albumin: 3.2 g/dL
  Alk Phos: 54 U/L
  BUN: 14 mg/dL
  CPK: 163 U/L
  Cholesterol: 71 mg/dL
  Creatinine: 1.3 mg/dL
  Differential Count: Atyp lym: 0%
  Differential Count: Baso: 0%
  Differential Count: Eosin: 2%
  Differential Count: Lymph: 55%
  Differential Count: Mono: 7%
  Differential Count: Seg: 36%
  Gamma GT: 55 U/L
